One series relates to Plasmodium falciparum. The experiment in a line: Antiplasmodial activity against asexual blood stage Plasmodium falciparum D10 expressing yeast DHODH infected in human erythrocytes assessed as parasite killing in presence of proguanil. It is filed as functional, organism-based.
The nature of series [1]: Cmax in Swiss mouse at 24 mg/kg, po measured up to 24 hrs by LC-MS analysis. The arrangement: route oral, dose 24 mg/kg, time <=24. It is filed as ADME, organism-based. The note with it: in vivo.
In a further series the target is T1, Cytochrome P450 2B6 (Homo sapiens, UniProt P20813).
T1 sequence (P20813 whole entry): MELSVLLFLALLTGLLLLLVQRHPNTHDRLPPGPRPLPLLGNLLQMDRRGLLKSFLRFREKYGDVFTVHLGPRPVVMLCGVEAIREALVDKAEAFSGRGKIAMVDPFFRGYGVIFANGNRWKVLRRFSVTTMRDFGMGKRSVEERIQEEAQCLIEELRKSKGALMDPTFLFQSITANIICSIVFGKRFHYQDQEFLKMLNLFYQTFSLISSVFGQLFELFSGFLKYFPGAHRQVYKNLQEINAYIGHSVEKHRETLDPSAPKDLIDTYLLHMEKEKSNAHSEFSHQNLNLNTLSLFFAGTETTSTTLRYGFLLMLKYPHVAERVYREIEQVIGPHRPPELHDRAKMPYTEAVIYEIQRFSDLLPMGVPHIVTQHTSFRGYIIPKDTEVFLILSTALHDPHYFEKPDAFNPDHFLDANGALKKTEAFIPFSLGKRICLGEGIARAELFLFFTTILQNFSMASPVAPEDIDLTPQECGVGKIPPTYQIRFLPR

The nature of a further series: in vivo. The note with it: Sprague-Dawley, rat, po, 17 mg/kg.
The conditions of series [2]: rat, plasma.
Series [3] is described as follows: Volume of distribution at steady state in Sprague-Dawley rat at […], iv measured up to 24 hrs. It is filed as ADME, organism-based. The note with it: in vivo, dose 1.8 mg/kg, read-out: Vdss.

For `Cc1c(C2(c3ccc(C(F)(F)F)nc3)CC2)c[nH]c1C(=O)NC(C)c1nc[nH]n1` (stereo in doubt; form 1), in the series with Plasmodium falciparum, the EC50 (in general, the concentration needed to bring the measured effect to its halfway point) is greater than 10 µM. In series [1], the highest level (Cmax) was 20 µM. Also, the half-maximal inhibitory concentration (IC50) (in general, the concentration at which inhibition is half-maximal) against Cytochrome P450 2B6 was greater than 20 µM. In the series “in vivo”, the Tmax (in general, the time from dosing to the highest level) at 24 h was determined as 2.5 h. The compound also displayed a PPB in series [2] of 94.3%. The Vd at 24 h in series [3] amounted to 2.1 L/kg.

For the origin of these results see ChEMBL document CHEMBL4811258, “Potent Antimalarials with Development Potential Identified by Structure-Guided Computational Optimization of a Pyrrole-Based Dihydroorotate Dehydrogenase Inhibitor Series” (J Med Chem, 2021).
